Experimental data as given in US12419862B2, “Use of a cathepsin s inhibitor against the formation of anti-drug antibodies” (Hoffmann-La Roche Inc., priority 2018, dated 2025).
“Also recorded” adds a separate entry of the source.

Legend:
Assay type in all cases: in vivo, C57BL/6-Tg (hIgG1,k,l) mice
[1] = test system: adalimumab-specific IgG response; experiment: ADA against adalimumab in hIgG1 Tg mice, ELISA (Example 1, 28 days); conditions: 40 mg/kg/day via food admix from one day before first immunization until day 28, vs vehicle
Source text: (§1) For immunogenicity assessment, we used the previously described human IgG1 immune-tolerant mouse model (Bessa, Boeckle et al. Pharm Res 2015, 32(7): 2344-2359). Since this human IgG transgenic mouse is tolerant to a broad range of human IgG1 antibodies (Abs), ADA responses elicited in this system are taken to reflect intrinsic immunogenic attributes of the eliciting Ab compounds also expected to cause ADA in humans.
(§2) 15-week-old mice C57BL/6 wild type and C57BL/6-Tg (hIgG1,k,l) were purchased from Taconic (Denmark) and housed at the animal facilities under a 12 hour (h) light 12 h dark cycle with cycles of air ventilation and free access to water and food. 7×10 μg of CEA-112v or 7×10 μg of Humira (Adalimumab, Abbvie Germany GmbH) were injected respectively at day 0, 4, 7, 11, 14, 18 and 21 subcutaneously in the right flank or the left flank alternatively. The dosage of the cathepsin S inhibitor consumption was 40 mg/kg/day. […]
(§3) Nunc Maxisorp flat-bottom 96 well ELISA plates were coated with 100 μl per well of Humira or CEA-PGLALA (3.42 mg/ml, ID 8037) respectively at 5 μg/mL in NaHCO3100 mM buffer overnight at +4° C. […] 100 μl of substrate P-nitrophenyl phosphate ready to use (Life Technologies Cat no 002212) were added per well and after 10 min incubation at room temperature, the OD at 405 nm was read as an end-point measurement with a Versamax ELISA reader.

[2] = test system: CEA-specific IgG response; experiment: ADA against CEA-IL2v in hIgG1 Tg mice, ELISA (Example 1, 28 days); conditions: 40 mg/kg/day via food admix from one week before first immunization until day 28, vs vehicle
Source text: as §1, §2, §3

[3] = test system: adalimumab-specific IgG response; experiment: ADA against adalimumab in hIgG1 Tg mice over time, ELISA (Example 3, 63 days); conditions: 40 mg/kg/day via food admix from one day before first immunization until day 28, blood samples to day 56, vs vehicle
Description: 15-week-old female mice C57BL/6-Tg (hIgG1,k,l) were purchased from Taconic (Denmark) and housed at the animal facilities in room with air-conditioned under a 12 hours light/dark cycle in macrolon boxes with enriched environment and free access to water and food. 7×10 μg of Humira (Adalimumab, Abbvie Germany GmbH) were injected at day 0, 4, 7, 11, 14, 18 and 21 subcutaneously in the right flank or the left flank alternatively. The dosage of (2S,4R)-4-[4-(1-methyl-1H-pyrazol-4-yl)-2-trifluoromethyl-benzenesulfonyl]-1-(1-trifluoromethyl-cyclopropanecarbonyl)-pyrrolidine-2-carboxylic acid (1-cyano-cyclopropyl)-amide consumption was 40 mg/kg/day. (2S,4R)-4-[4-(1-methyl-1H-pyrazol-4-yl)-2-trifluoromethyl-benzenesulfonyl]-1-(1-trifluoromethyl-cyclopropanecarbonyl)-pyrrolidine-2-carboxylic acid (1-cyano-cyclopropyl)-amide was given via food admix (Ssniff Spezialdiäten, Germany) daily from one day before the first Humira immunization until day 28. […]
Nunc Maxisorp flat-bottom 96 well ELISA plates were coated with 100 μl per well of Humira or CEA-PGLALA respectively at 5 μg/mL in NaHCO3100 mM buffer overnight at +4° C. […] 100 μl of substrate P-nitrophenyl phosphate ready to use (Life Technologies, Cat no 002212) were added per well and after 10 min incubation at room temperature, the OD at 405 nm was read as an end-point measurement with a Versamax ELISA reader.

`Cn1cc(-c2ccc(S(=O)(=O)[C@@H]3C[C@@H](C(=O)NC4(C#N)CC4)N(C(=O)C4(C(F)(F)F)CC4)C3)c(C(F)(F)F)c2)cn1` [cathepsin S inhibitor, (2S,4R)-4-[4-(1-methyl-1H-pyrazol-4-yl)-2-trifluoromethyl-benzenesulfonyl]-1-(1-trifluoromethyl-cyclopropanecarbonyl)-pyrrolidine-2-carboxylic acid (1-cyano-cyclopropyl)-amide] was tested, and the “ADA to adalimumab (adalimumab-specific IgG)” value [1] was “reduces ADA to adalimumab; also recorded: reduced ADA levels compared to vehicle treated animals”, the “ADA to CEA-IL2v (CEA-specific IgG)” value [2] was “prevents ADA to CEA-IL2v in hIgG transgenic mice; also recorded: complete abrogation of ADA to CEA-IL2v” and the “ADA to adalimumab (adalimumab-specific IgG) over time” value [3] was “reduces ADA to adalimumab”.
